According to PubChem BioAssay AID1996:
≈ marks a conversion by molar mass, not a printed value.

Conditions: buffer; pH 7.4; 200.0 µM

Structure (SMILES) | solubility kinetic
COc1ccc(N2CCN(C(CNS(=O)(=O)c3ccc(C)cc3)c3ccccc3)CC2)cc1 (stereo unspecified) | 1.4 µg/mL (≈ 3.01 µM)
O=C(NCCN1CCNCC1)c1ccccc1O | > 37.4 µg/mL
COc1ccc(NC(=S)NC(=O)Cc2ccccc2)cc1 | 19.2 µg/mL (≈ 63.9 µM)
CCOC(=O)c1ccc(NC2=CC(=O)CC(c3ccco3)C2)cc1 (stereo unspecified) | 9.6 µg/mL (≈ 29.5 µM)
COc1cccc(OC)c1OCCOCCN1CCN(C)CC1 | 48.6 µg/mL (≈ 150 µM)
Cc1[nH]c2ccccc2c1C(=O)C(=O)N1CC2CC(C1)c1cccc(=O)n1C2 (stereo unspecified) | > 56.3 µg/mL
CCc1ccccc1NC(=O)NC(C)c1ccc2c(c1)OCO2 (stereo unspecified) | 0.6 µg/mL (≈ 1.92 µM)
O=C(COc1ccccc1)NCC1(N2CCCCC2)CCCCC1 | 48.3 µg/mL (≈ 146 µM)
CC(=O)c1ccc(NC(=O)COC(=O)CC2CC3CCC2C3)cc1 (stereo unspecified) | 37.5 µg/mL (≈ 114 µM)
CNC(=O)Nc1cccc(-c2cc(-c3c(Cl)cccc3Cl)no2)c1 | < 0.3 µg/mL
COc1ccc(NS(=O)(=O)c2ccc(O)c(NS(=O)(=O)c3ccc(NC(C)=O)cc3)c2)cc1 | > 73.7 µg/mL
Cc1[nH]c(=O)c(Cc2ccccc2)c(O)c1C#N | > 36 µg/mL
COc1cc(N/C(N)=N/c2nc(C)cc(C)n2)cc(OC)c1 | > 45.2 µg/mL
O=C(Cc1c(Cl)cccc1Cl)OCc1ccccn1 | 40.1 µg/mL (≈ 135 µM)
N/C(=N\S(=O)(=O)c1ccc(Cl)cc1)N1CCOCC1 | > 45.6 µg/mL
O=c1[nH]c(-c2ccccc2)ncc1Oc1ccccc1 | 33.7 µg/mL (≈ 128 µM)
O=C(CCc1cccc(Cl)c1)N1CCCC(Nc2ccccc2)C1 (stereo unspecified) | 27.4 µg/mL (≈ 79.9 µM)
COc1ccc(OC)c(NC(=O)COC(=O)/C=C/c2ccco2)c1 | 10.4 µg/mL (≈ 31.4 µM)
NS(=O)(=O)c1ccc(CNC(=O)Cc2ccccc2F)cc1 | > 48.4 µg/mL
Cc1ccccc1/C=C1\C(=O)Nc2ccc(F)cc21 | 0.9 µg/mL (≈ 3.55 µM)
COc1ccc(NC(=O)CN(C)C2=NS(=O)(=O)c3ccccc32)cc1Cl | 4.4 µg/mL (≈ 11.2 µM)
COC(=O)c1ccc2nccnc2c1 | 22.7 µg/mL (≈ 121 µM)
CCN(CC)CCCNC(=O)Cn1ccc2ccccc2c1=O | > 47.3 µg/mL
O=C(COC(=O)c1ccco1)NCc1ccccc1Cl | > 44.1 µg/mL
CC(=O)c1cn(CCOc2ccccc2C)c2ccccc12 | < 0.6 µg/mL

Structure (SMILES) | solubility kinetic
C/C(=N/NC(=O)c1ccncc1)c1ccccc1 | > 35.9 µg/mL
O=C(CCc1nc(-c2ccccc2Cl)no1)NC1CCCC1 | 23 µg/mL (≈ 71.9 µM)
CS(=O)(=O)N(CC(=O)N1CCCCCC1)c1cccc(F)c1 | > 49.3 µg/mL
Cc1cc(CNC(=O)Cc2ccc(F)cc2)c2ccccc2n1 | > 46.3 µg/mL
CNC(=O)CSc1nccn1Cc1ccc(Cl)cc1 | > 44.4 µg/mL
Cc1c(N)cccc1-n1cccc1 | 20 µg/mL (≈ 116 µM)
O=C(Cc1c(F)cccc1Cl)N1CCOCC1 | > 38.7 µg/mL
Cc1ccc(NC(=O)CN(C)CCOc2ccccc2)c([N+](=O)[O-])c1 | < 0.2 µg/mL
COC(=O)c1sc(-c2ccc(Cl)cc2)cc1NC(=O)COCC(=O)O | 28.1 µg/mL (≈ 73.2 µM)
CC(=O)c1sc(NC(C)c2ccccc2)nc1C (stereo unspecified) | 30.4 µg/mL (≈ 117 µM)
O=C(CNC(=O)C1CCCCC1)NCc1ccco1 | > 39.6 µg/mL
COC(=O)c1cc(C(=O)Nc2nc3ccccc3[nH]2)cc([N+](=O)[O-])c1 | 1.1 µg/mL (≈ 3.23 µM)
Fc1ccc(CNC(=S)NCc2ccccc2)cc1 | 11 µg/mL (≈ 40.1 µM)
O=C(O)/C=C/c1cccnc1 | > 22.4 µg/mL
CC(NC(=O)/C(C#N)=C/c1ccc(C(=O)O)cc1)c1ccccc1 (stereo unspecified) | > 48.1 µg/mL
COc1ccc(CN(C(=O)/C=C/c2ccco2)C2CCS(=O)(=O)C2)cc1 (stereo unspecified) | 44.7 µg/mL (≈ 119 µM)
CCCCNC(=S)N1CCN(C)CC1.O=C(O)C(=O)O | > 45.8 µg/mL
O=C(NC1CCN(C(=O)c2cccs2)CC1)c1ccccc1 | 46.1 µg/mL (≈ 147 µM)
C=CCN1C(=O)NC(=O)/C(=C/c2ccc(OCC(=O)Nc3ccc(C)cc3)cc2)C1=O | > 62.9 µg/mL
CCc1nc(C)cn1S(=O)(=O)c1ccc(Br)cc1 | > 49.4 µg/mL
CC(=O)Nc1cccc(CCc2nc3ccccc3[nH]2)c1 | > 41.9 µg/mL
OCCN1CCN(c2nc(-c3ccccc3O)nc3ccccc23)CC1 | 37.8 µg/mL (≈ 108 µM)
NS(=O)(=O)c1cc(C(=O)NCCc2ccccn2)ccc1Cl | 49.1 µg/mL (≈ 144 µM)
CCOC(=O)CNC(=O)N1c2ccccc2Sc2ccccc21 | > 49.3 µg/mL
Nc1cccc(CN2CCCC2)c1 | > 26.4 µg/mL

Structure (SMILES) | solubility kinetic
COc1ccccc1OCCC(=O)OCC(=O)NCc1ccc(F)cc1 | 23.5 µg/mL (≈ 65 µM)
Cc1ccc2nc(SCC(=O)N3CCN(c4ccccc4)CC3)[nH]c2c1 | 1.7 µg/mL (≈ 4.64 µM)
CC(C(=O)N(C)C1CCCCC1)N1CCC(C(N)=O)CC1 (stereo unspecified) | 43.1 µg/mL (≈ 146 µM)
CCCN1CN(c2ccccc2)C(=S)N(c2ccccc2)C1 | > 46.7 µg/mL
O=C(Nc1ccc(C(=O)O)cc1)Nc1cccc2ccccc12 | > 45.9 µg/mL
Cc1cc(C)cc(C(=O)Nc2ccncc2)c1 | > 33.9 µg/mL
O=C1/C(=C/c2ccc(F)cc2)Oc2cc(OC(=O)N3CCOCC3)ccc21 | < 0.8 µg/mL
C#CCNC(=O)c1cc2sccc2n1C | 30.6 µg/mL (≈ 140 µM)
Cc1nc(SCC(=O)NC(=O)NC2CCCCC2)nc(C)c1C | 47.8 µg/mL (≈ 142 µM)
CC(C)N(C(=O)Cn1c(=O)oc2ccccc21)c1ccccc1 | 0.7 µg/mL (≈ 2.26 µM)
CC1=C(C(=O)OC(C)(C)C)C(c2cccc3ccccc23)NC(=O)N1 (stereo unspecified) | < 0.4 µg/mL
O=c1oc(-c2ccc([N+](=O)[O-])cc2)nc2ccccc12 | 0.3 µg/mL (≈ 1.12 µM)
COc1ccc2cc(Br)ccc2c1CC(=O)NCCCN1CCOCC1 | > 63.2 µg/mL
Cc1cccc(OCC(=O)NCCCNC(=O)c2ccco2)c1 | 46.8 µg/mL (≈ 148 µM)
Cc1ccc(N2C(=O)CC(Cc3ccc(Cl)cc3)C2=O)cc1 (stereo unspecified) | 7.1 µg/mL (≈ 22.6 µM)
CCOc1ccc(NC(=S)Nc2ccc(F)cc2)cc1 | 8.3 µg/mL (≈ 28.6 µM)
Cc1ccc(S(=O)(=O)N2CCN(C)CC2)cc1C | 31.3 µg/mL (≈ 117 µM)
O=C(/C=C/c1ccc([N+](=O)[O-])s1)N1CCCC1 | > 37.8 µg/mL
COc1cccc(N2CCN(C(=O)c3ccc4nc[nH]c4c3)CC2)c1 | 48.6 µg/mL (≈ 144 µM)
O=[N+]([O-])c1ccc(O)c(C=Nc2ccc3c(c2)OCO3)c1 | 15.8 µg/mL (≈ 55.2 µM)
O=S(=O)(Nc1ccccc1Cl)c1cccc2nsnc12 | > 48.9 µg/mL
Cn1c(=O)c2c(nc(N3CCc4ccccc4C3)n2C)n(C)c1=O | 43.2 µg/mL (≈ 133 µM)
CN(c1ccccc1)S(=O)(=O)c1ccc(C(=O)NCc2ccc(F)cc2)cc1 | 8.1 µg/mL (≈ 20.3 µM)
O=C(Nc1ccc(N2CCCCC2)c(S(=O)(=O)Nc2ccccc2Cl)c1)c1cccnc1 | 1.5 µg/mL (≈ 3.18 µM)
COc1cc(OC)c(C(=O)Nc2cccnc2)cc1OC | > 43.2 µg/mL

Structure (SMILES) | solubility kinetic
O=C(COC(=O)COc1ccc(Br)cc1)NCc1ccc2c(c1)OCO2 | 8.4 µg/mL (≈ 19.9 µM)
S=C(Nc1ccccc1)N(Cc1ccccc1)Cc1ccncc1 | 39.2 µg/mL (≈ 118 µM)
CCOC(=O)CN1C(=O)C(=O)N(Cc2ccccc2)C1=O | > 43.5 µg/mL
COc1cccc(C(=O)NCCSCc2ccccc2Cl)c1 | 16 µg/mL (≈ 47.6 µM)
O=C(c1ccccc1)N(Cc1ccccc1)Cc1ccccc1 | 0.8 µg/mL (≈ 2.65 µM)
CCC(=O)N/C(N)=N/c1nc2ccccc2o1 | 14.8 µg/mL (≈ 63.7 µM)
Cc1ccc(NC(=O)OCc2cc(-c3ccccc3)on2)cc1 | < 0.3 µg/mL
Cc1cccc(CC(=O)Nc2ccon2)c1 | > 32.4 µg/mL
CCN(CC)c1ccc(NC(=O)CSC(=O)c2ccccc2)cc1.O=S(=O)(O)O | 4.1 µg/mL
Nn1c(SCC(=O)NC2CCCCCC2)nnc1C(F)(F)F | > 50.6 µg/mL
NC(=O)CN1CCN(Cc2ccc3c(c2)OCO3)CC1 | > 41.6 µg/mL
CSc1ncccc1C(=O)NC1CCCCCCC1 | 21.7 µg/mL (≈ 77.9 µM)
CCOC(=O)CSc1nc(C)c2cccc(C)c2n1 | 30.6 µg/mL (≈ 111 µM)
CCC(=O)Nc1cc(OC)cc(OC)c1 | > 31.4 µg/mL
Cc1cccc(-c2noc(CNC(=O)c3ccco3)n2)c1 | 42.5 µg/mL (≈ 150 µM)
O=S(=O)(c1cccc2ccccc12)N1CCCCC1 | 17.3 µg/mL (≈ 62.8 µM)
Clc1ccc(C2Nc3cccc4cccc(c34)N2)cc1Cl | 0.4 µg/mL (≈ 1.27 µM)
COc1cc(CC(=O)O)c([N+](=O)[O-])cc1OC | > 36.2 µg/mL
Cc1ccccc1NC(=O)Cc1c[nH]c2ccccc12 | 39.5 µg/mL (≈ 149 µM)
CCC(C)NCCOc1cc(C)cc(C)c1C.O=C(O)C(=O)O (stereo unspecified) | 35.1 µg/mL
CS(=O)(=O)N1CCN(C(=O)c2ccc3c(c2)OCCO3)CC1 | > 49 µg/mL
CSc1ncccc1C(=O)OCc1cccc([N+](=O)[O-])c1 | < 0.3 µg/mL
COc1ccc(NC(=O)CC2(CC(=O)O)CCCC2)cn1 | > 43.9 µg/mL
COc1ccc(NC(=O)c2cc(C)no2)cc1Cl | 7.5 µg/mL (≈ 28.1 µM)
O=C(NCCC1=CCCCC1)c1cc(-c2ccncc2)nc2ccccc12 | 1.2 µg/mL (≈ 3.36 µM)

Structure (SMILES) | solubility kinetic
O=C(OCC(=O)N1CCc2ccccc21)c1ccc([N+](=O)[O-])o1 | 8.2 µg/mL (≈ 25.9 µM)
Clc1ccc(CNc2ncccn2)cc1 | 24.4 µg/mL (≈ 111 µM)
CCCOc1ccccc1/C=C1/C(=O)ON=C1C | 23.3 µg/mL (≈ 95 µM)
NS(=O)(=O)c1ccc(NC(=O)c2ccc3nccnc3c2)cc1 | 7.5 µg/mL (≈ 22.8 µM)
CCCCC(=O)NC(=S)Nc1ccc(NC(=O)C(C)C)c(OC)c1 | 5.4 µg/mL (≈ 15.4 µM)
COc1ccccc1NS(=O)(=O)c1cc(C(=O)N2CCCCCC2)ccc1C | 9.6 µg/mL (≈ 23.8 µM)
CCOC(=O)/C(=C\c1ccccc1)NC(=O)c1ccccc1 | > 44.3 µg/mL
CN(C)S(=O)(=O)N1CCN(C(=O)c2ccc3c(c2)OCO3)CC1 | > 51.2 µg/mL
CCC(=O)c1ccc(N2CCN(C(=O)c3ccc(F)cc3)CC2)c(F)c1 | > 53.8 µg/mL
Cc1cccc(NC(=O)c2cnccn2)c1 | 22.1 µg/mL (≈ 104 µM)
CCC1CN(C(=O)NCc2cccc(OC)c2)c2cc(Cl)ccc2O1 (stereo unspecified) | 4.5 µg/mL (≈ 12.5 µM)
NC(=O)c1ccccc1NC(=O)COc1ccc2c(c1)OCO2 | 3.1 µg/mL (≈ 9.86 µM)
CCOC(=O)c1cnc2c(OC)cccc2c1Oc1ccccc1 | 7.2 µg/mL (≈ 22.3 µM)
CSc1ncc(C(=O)Nc2ccccc2Cl)c(C)n1 | 39.6 µg/mL (≈ 135 µM)
CC12CN3CC(C)(CN(C1)C3c1ccccc1F)C2 (stereo unspecified) | 34.3 µg/mL (≈ 132 µM)
O=c1oc(-c2ccc(Br)cc2)nc2ccccc12 | < 0.6 µg/mL
Nc1c(Br)c(=O)[nH]c(=O)n1-c1ccc(F)cc1 | 25.3 µg/mL (≈ 84.3 µM)
Cc1cc2ncc(S(=O)(=O)C(C)(C)C)c(N)n2n1 | > 40.2 µg/mL
CCN(CC)S(=O)(=O)c1ccc(NC(=S)Nc2ccccc2)cc1 | 13 µg/mL (≈ 35.8 µM)
C=C(C)CNC(=S)NNC(=O)c1ccncc1 | > 37.5 µg/mL
COc1ccc(NC(=S)Nc2ccc(OC(F)F)cc2)cn1 | 35 µg/mL (≈ 108 µM)
